The structures appear in SMILES notation. Where only a bound is given, the exact number is not on record here.

One test deals with Cholinesterase (Homo sapiens, UniProt P06276). The test can be described thus: Inhibition of BChE.
Another test deals with Acetylcholinesterase (Homo sapiens, UniProt P22303). Put plainly: Inhibition of AChE.
Chain of Acetylcholinesterase (P22303 whole entry): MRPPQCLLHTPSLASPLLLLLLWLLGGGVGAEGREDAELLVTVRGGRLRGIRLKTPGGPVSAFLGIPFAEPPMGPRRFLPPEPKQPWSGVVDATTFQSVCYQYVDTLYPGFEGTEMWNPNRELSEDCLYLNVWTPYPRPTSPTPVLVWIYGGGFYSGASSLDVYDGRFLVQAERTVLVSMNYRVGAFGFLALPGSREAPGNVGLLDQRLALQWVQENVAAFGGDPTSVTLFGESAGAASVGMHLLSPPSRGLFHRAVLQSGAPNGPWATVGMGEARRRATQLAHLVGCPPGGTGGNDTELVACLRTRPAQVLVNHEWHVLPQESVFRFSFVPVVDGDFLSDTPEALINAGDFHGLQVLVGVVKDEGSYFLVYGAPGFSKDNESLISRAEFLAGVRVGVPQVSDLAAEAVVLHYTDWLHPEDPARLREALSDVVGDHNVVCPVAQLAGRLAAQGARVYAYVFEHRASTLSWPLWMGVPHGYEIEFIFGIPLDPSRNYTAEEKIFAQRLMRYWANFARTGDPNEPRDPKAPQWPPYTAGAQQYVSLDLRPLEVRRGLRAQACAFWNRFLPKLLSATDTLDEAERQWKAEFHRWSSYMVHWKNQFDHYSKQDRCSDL

Chain of Cholinesterase (P06276 whole entry): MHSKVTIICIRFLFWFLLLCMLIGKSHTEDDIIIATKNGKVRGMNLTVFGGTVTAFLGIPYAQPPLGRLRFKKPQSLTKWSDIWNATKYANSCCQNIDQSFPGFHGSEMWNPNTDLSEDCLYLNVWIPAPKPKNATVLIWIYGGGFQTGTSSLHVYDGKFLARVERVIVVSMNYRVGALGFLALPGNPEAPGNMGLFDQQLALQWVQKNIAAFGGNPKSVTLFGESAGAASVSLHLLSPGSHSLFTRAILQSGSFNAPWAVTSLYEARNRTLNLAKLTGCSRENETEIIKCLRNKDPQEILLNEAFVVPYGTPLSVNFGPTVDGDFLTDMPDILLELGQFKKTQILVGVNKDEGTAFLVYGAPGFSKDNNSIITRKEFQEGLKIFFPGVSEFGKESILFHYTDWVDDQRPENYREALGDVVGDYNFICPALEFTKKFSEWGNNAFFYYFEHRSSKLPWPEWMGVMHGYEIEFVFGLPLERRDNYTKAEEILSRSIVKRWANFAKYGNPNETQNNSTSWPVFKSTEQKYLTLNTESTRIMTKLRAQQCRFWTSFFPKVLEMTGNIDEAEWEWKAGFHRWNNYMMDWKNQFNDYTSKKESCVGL

What is called IC50 is the point on the concentration scale where inhibition reaches its midpoint. As to `Cc1nccc2c3cc(O)ccc3n(C)c12`, the half-maximal inhibitory concentration (IC50) at Cholinesterase (read-out: IC50) and at Acetylcholinesterase (read-out: IC50) was over 10 µM throughout.
For the compound `C[n+]1ccc2c(c1)[nH]c1ccc(O)cc12`, the IC50 on Cholinesterase (read-out: IC50) amounted to 8.7 µM; at Acetylcholinesterase (read-out: IC50), 4.2 µM.
For `COc1ccc2c(c1)c1cc[n+](C)c(C)c1n2C`, the concentration for half-maximal inhibition (IC50) at Cholinesterase (read-out: IC50) and on Acetylcholinesterase (read-out: IC50) was over 10 µM in each case.
Regarding `COc1ccc2c(c1)c1ccncc1n2C`, the half-inhibitory concentration (IC50) on Cholinesterase (read-out: IC50) and at Acetylcholinesterase (read-out: IC50) was over 10 µM in each case.
For `COc1ccc2[nH]c3c(c2c1)CCNC3`, the half-maximal inhibitory concentration (IC50) at Cholinesterase (read-out: IC50) and at Acetylcholinesterase (read-out: IC50) was over 10 µM in each case.
For the compound `COc1ccc2[nH]c3c(C)nccc3c2c1`, the IC50 on Cholinesterase (read-out: IC50) and on Acetylcholinesterase (read-out: IC50) was over 10 µM throughout.
As to `Cn1c2ccc(O)cc2c2cc[n+](C)cc21`, the IC50 at Cholinesterase (read-out: IC50) came out at 32.2 µM; on Acetylcholinesterase (read-out: IC50), 1.8 µM.
The like results for `Cn1c2ccc(O)cc2c2ccncc21` were, in that order, over 10 µM and over 10 µM.
Regarding `COc1ccc2[nH]c3c(C)[n+](C)ccc3c2c1`, the IC50 at Cholinesterase (read-out: IC50) was 1.2 µM; at Cholinesterase (read-out: Log IC50 (converted)) it was 1.1 µM; at Acetylcholinesterase (read-out: IC50), 0.8 µM.
For the compound `COc1ccc2c(c1)c1ccnc(C)c1n2C`, the 50% inhibitory concentration (IC50) at Cholinesterase (read-out: IC50) came to 17.4 µM; at Acetylcholinesterase (read-out: IC50), 11.8 µM.
On the same counts, the results for `Cc1c2[nH]c3ccc(O)cc3c2cc[n+]1C` are 1.6 µM and 1 µM.
On the same counts, the results for `Oc1ccc2[nH]c3cnccc3c2c1` are over 10 µM and over 10 µM.
On to `Cc1nccc2c1[nH]c1ccc(O)cc12`, for which the IC50 at Cholinesterase (read-out: IC50) and at Acetylcholinesterase (read-out: IC50) was over 10 µM throughout.
`COc1ccc2[nH]c3c[n+](C)ccc3c2c1`: the results for the half-inhibitory concentration (IC50) at Cholinesterase (read-out: IC50) and on Acetylcholinesterase (read-out: IC50) were 17.5 µM and 2.2 µM, respectively.
Regarding `COc1ccc2c(c1)c1cc[n+](C)cc1n2C`, the IC50 on Cholinesterase (read-out: IC50) is 20.9 µM; at Acetylcholinesterase (read-out: IC50), 1.3 µM; at Acetylcholinesterase (read-out: Log IC50 (converted)), 1.4 µM.
For the compound `Cc1c2c(cc[n+]1C)c1cc(O)ccc1n2C`, the results for the IC50 at Cholinesterase (read-out: IC50) and at Acetylcholinesterase (read-out: IC50) were 2.7 µM and 1.9 µM, respectively.
The like results for `COc1ccc2[nH]c3cnccc3c2c1` were, in that order, over 10 µM and over 10 µM.
On the same counts, the results for `COc1ccc2[nH]c3c(c2c1)CCNC3C` (stereo not drawn) [ADRENOGLOMERULOTROPIN] are over 10 µM and over 10 µM.

The values are drawn from ChEMBL document CHEMBL1139709, “6-Hydroxy- and 6-methoxy-beta-carbolines as acetyl- and butyrylcholinesterase inhibitors” (Bioorg Med Chem Lett, 2006).
